# Measurements taken from US20160324770A1, “INTRATHECAL ADMINISTRATION, PREFERABLY INTRAVENTRICULAR, OF MTOR INHIBITORS FOR THE THERAPY OF SOME NEURODEGENERATIVE, NEUROINFLAMMATORY AND NEURO-ONCOLOGIC DISEASES” (priority 2012, published 2016).
# Read-outs that look alike come from different tables or passages of the source.
# Columns and labels:
# [1] = Blood and brain concentrations (LC-MS) in mice treated intraperitoneally for a week with graduated doses; assay type: in vivo, CD1 mice; settings: for concentration at 1 week: CD1, mouse
# Method: A quantitative analysis of everolimus in blood and tissue samples was performed with the isotopic dilution method using the LC-MS technique. The chromatographic system was the following: Agilent 1290 Infinity HPLC equipped with a binary pump and HiP Auto Sampler model G4226A. The injection volume was 2 μL, the analytical column used was a Phenomenex Kinetics PFP UHPLC column (Phenomenex, Milan, Italy) […], 1.7 μm, 100 Å, temperature controlled at 55° C. A gradient elution was performed using as solvent A: water with 5 mM ammonium formiate, solvent B: methanol with 0.1% formic acid. The elution profile was the following: solvent A 30%/solvent B 70% for 3 minutes, solvent A 1%/solvent B 99% from 3 to 6 minutes, at a flow velocity of 0.25 mL/min. This setup enabled an elution time of 2.5 minutes. Every injection was preceded by a cycle of washing the injector system with methanol.
# Mass spectrometry was conducted using a Q-TOF MS detector model G6540A (Agilent, Germany) equipped with a Dual AJS ESI (electrospray ionization interface) system. The instrument parameters were the following: sheath gas flow: […], sheath gas temperature: 300° C., gas flow: 6 L/min, gas temperature: 300° C., nebulizer pressure: 35 psi, ion spray voltage: 5500 V.
# Both everolimus and the isotopic internal standard were detected as ammonium adducts in the positive ion mode.
# Everolimus was extracted from whole blood in 1 mL of a methanol solution containing 10% ammonium acetate in order to enable precipitation of most of the serum protein.
# The internal standard used was isotopic 4d-2C^13-everolimus added to the extraction solution at a concentration of 200 ng/mL.
# The blood samples were freeze-dried and subsequently extracted. The extraction process was carried out in a sonication bath for approx. 10 minutes to ensure complete haemolysis and release of the drug from the cell material.
# The samples were centrifuged (10 minutes, 4000 rpm, 10° C.) and the supernatant was then separated from the pellet.
# The solutions thus obtained were then purified by means of HybridSPE®-Phospholipid solid-phase extraction cartridges with a total volume of 1 ml (Sigma Aldrich, Milan) to eliminate the excess lipid material potentially present. The process was preliminarily validated both for everolimus and for the internal standard in solution and in matrices, providing a yield >98% w/v.
# The process of extraction from brain samples, divided into right and left hemispheres, was similar to the one for whole blood. The tissue samples were weighed and subsequently freeze-dried. After freeze-drying the samples were finely chopped to facilitate subsequent extraction. 1 mL of the methanol solution was then added to 1% v/v of ammonium formiate with 200 ng/mL of internal standard. The samples were then subjected to 10 minutes of sonication and vortexed to ensure complete extraction of the drug. Then followed centrifugation (10 minutes, 4000 rpm, 10° C.) and the supernatant was separated from the pellet. As previously described, the solutions were purified by means of HybridSPE®-Phospholipid solid-phase extraction cartridges with a total volume of 1 ml (Sigma Aldrich, Milan) to eliminate the excess lipid material. The samples were then immediately submitted to LC-MS analysis.
# [2] = mouse, in vivo, 25 mg/kg
# Source text: Intraventricular infusion: Under general anaesthesia obtained with Ketamine/Xylazine, Alzet osmotic pumps (http://www.alzet.com/products/guide_to_use/pump_selection.ht ml) were implanted subcutaneously on the back; a catheter leading from the pump reached the cranial vault, where it was connected to a connector (Brain Kit 3, Alzet) stereotaxically implanted in the cranium until reaching the lateral ventricle. These pumps are capable of infusing their content at a constant speed for 1-4 weeks.
# We then decided to look for the maximum tolerable dose by intraventricular administration of everolimus at concentrations 10 times higher than those shown in Table 1: A=25 mg/Kg, B=12.5 mg/Kg, C=[…].
# Therefore, that dose was ruled out and the mice were sacrificed. […] For the subsequent assessment of therapeutic effectiveness in the different animal models, dose B (12.5 mg/Kg) was selected.
# [3] = test system: p70-S6 kinase phosphorylation (measure of mTOR activity); experiment: Western blot of p70S6K phosphorylation in brain, liver and spleen (verification of mTOR inhibition); assay type: in vivo, mice
# Method: The frozen mouse tissues were homogenized in T-PER solution (Pierce) containing a cocktail of protease inhibitors (Sigma-Aldrich) and a cocktail of phosphatase inhibitors (Sigma-Aldrich). The homogenized samples were sonicated 3 times for 15 sec (amplitude of 10 microns) at 4° C. using an MSE soniprep 150 sonicator (Sanyo), and subsequently centrifuged at 4° C. for 30 minutes at 16000 g. The supernatant was recovered and the proteins quantified by means of a Bradford assay using BSA as the standard.
# For the Western blot analysis, the proteins were separated by SDS-PAGE under reducing conditions according to the method of Laemmli. Subsequently, the proteins were transferred onto a PVDF membrane (Biorad), which was incubated with the following primary antibodies: anti-phospho-p70S6K (T^389), anti-phospho-p70S6K (S^371), anti-p70S6K (Cell Signaling) and anti-actin (Sigma-Aldrich). After being washed with TBS-Tween (50 mM Tris, pH 7.5, NaCl […] and 0.1% Tween 20), the membrane was incubated with one of the following secondary antibodies: anti-rabbit IgG conjugated to HRP (GE Healthcare) and anti-mouse IgG conjugated to HRP (GE Healthcare). The membrane was developed by means of ECL prime (GE Healthcare).
# Verification of mTOR inhibition. We analyzed the actual inhibition of mTOR by WB. mTOR is a kinase with multiple substrates, one of which is p70-S6 kinase. Phosphorylation of the latter is unanimously considered a measure of mTOR activity.
smiles,measurement,setting,value
CO[C@H]1C[C@@H]2CC[C@@H](C)[C@@](O)(O2)C(=O)C(=O)N2CCCC[C@H]2C(=O)O[C@H]([C@H](C)C[C@@H]2CC[C@@H](OCCO)[C@H](OC)C2)CC(=O)[C@H](C)/C=C(\C)[C@@H](O)[C@@H](OC)C(=O)[C@H](C)C[C@H](C)/C=C/C=C/C=C/1C [everolimus],concentration at 1 week,"[1]; brain, intraperitoneal, 0.6125 mg/Kg, heading: Brain conc 1, one week, lowest of 3 dosages (C=0.6125 mg/Kg)",46 ng/g
same,Level in the blood,[1]; all 3 dosages of the one-week study,did not reach measurable levels in the blood
same,concentration at 1 week,"[1]; female, brain, left hemisphere (sx), ip, females, 0.6125 mg/kg i.p. for a week, normalized to weight of a hemisphere, read-out: Brain concentration, hemisphere sx (converted)",48 ng/g
same,concentration at 1 week,"[1]; female, brain, left hemisphere (sx), ip, females, 1.25 mg/kg i.p. for a week, normalized to weight of a hemisphere, read-out: Brain concentration, hemisphere sx (converted)",80 ng/g
same,concentration at 1 week,"[1]; female, brain, left hemisphere (sx), ip, females, 2.5 mg/kg i.p. for a week, normalized to weight of a hemisphere, read-out: Brain concentration, hemisphere sx (converted)",152 ng/g
same,concentration at 1 week,"[1]; female, brain, right hemisphere (dx), ip, females, 0.6125 mg/kg i.p. for a week, normalized to weight of a hemisphere, read-out: Brain concentration, hemisphere dx (converted)",44 ng/g
same,concentration at 1 week,"[1]; female, brain, right hemisphere (dx), ip, females, 1.25 mg/kg i.p. for a week, normalized to weight of a hemisphere, read-out: Brain concentration, hemisphere dx (converted)",72 ng/g
same,concentration at 1 week,"[1]; female, brain, right hemisphere (dx), ip, females, 2.5 mg/kg i.p. for a week, normalized to weight of a hemisphere, read-out: Brain concentration, hemisphere dx (converted)",132 ng/g
same,concentration at 1 week,"[1]; female, whole blood, ip, females, 0.6125 mg/kg intraperitoneally for a week, n = 2, read-out: Blood concentration",15 ± 3 ng/mL
same,concentration at 1 week,"[1]; female, whole blood, ip, females, 1.25 mg/kg intraperitoneally for a week, n = 2, read-out: Blood concentration",25 ± 5 ng/mL
same,concentration at 1 week,"[1]; female, whole blood, ip, females, 2.5 mg/kg intraperitoneally for a week, n = 2, read-out: Blood concentration",46 ± 4 ng/mL
same,concentration at 1 week,"[1]; male, brain, left hemisphere (sx), ip, males, 0.6125 mg/kg i.p. for a week, normalized to weight of a hemisphere, read-out: Brain concentration, hemisphere sx (converted)",36 ng/g
same,concentration at 1 week,"[1]; male, brain, left hemisphere (sx), ip, males, 1.25 mg/kg i.p. for a week, normalized to weight of a hemisphere, read-out: Brain concentration, hemisphere sx (converted)",100 ng/g
same,concentration at 1 week,"[1]; male, brain, left hemisphere (sx), ip, males, 2.5 mg/kg i.p. for a week, normalized to weight of a hemisphere, read-out: Brain concentration, hemisphere sx (converted)",176 ng/g
same,concentration at 1 week,"[1]; male, brain, right hemisphere (dx), ip, males, 0.6125 mg/kg i.p. for a week, normalized to weight of a hemisphere, read-out: Brain concentration, hemisphere dx (converted)",56 ng/g
same,concentration at 1 week,"[1]; male, brain, right hemisphere (dx), ip, males, 1.25 mg/kg i.p. for a week, normalized to weight of a hemisphere, read-out: Brain concentration, hemisphere dx (converted)",148 ng/g
same,concentration at 1 week,"[1]; male, brain, right hemisphere (dx), ip, males, 2.5 mg/kg i.p. for a week, normalized to weight of a hemisphere, read-out: Brain concentration, hemisphere dx (converted)",208 ng/g
same,concentration at 1 week,"[1]; male, whole blood, ip, males, 0.6125 mg/kg intraperitoneally for a week, n = 2, read-out: Blood concentration",16 ± 4 ng/mL
same,concentration at 1 week,"[1]; male, whole blood, ip, males, 1.25 mg/kg intraperitoneally for a week, n = 2, read-out: Blood concentration",42 ± 4 ng/mL
same,concentration at 1 week,"[1]; male, whole blood, ip, males, 2.5 mg/kg intraperitoneally for a week, n = 2, read-out: Blood concentration",59 ± 3 ng/mL
same,Blood concentration (LC-MS),[1]; mice treated with intraperitoneal administration,in the therapeutic range
same,Tolerability observations,[2],reduction in spontaneous motility and a very slight weight reduction
same,Inhibition of mTOR as shown by WB,[3]; intrathecal treatment,"local, but not systemic, inhibition of mTOR"
same,Phosphorylation state of p70-S6 kinase in the brain vs controls,"[3]; selected dose (12.5 mg/Kg) intraventricular, brain, FIG. 1",less phosphorylated form than in the controls
same,Phosphorylation state of p70-S6 kinase in the spleen and liver,"[3]; selected dose (12.5 mg/Kg) intraventricular, spleen and liver, FIG. 1",normally phosphorylated
